The NIST ThermoML archive (doi:10.1016/j.jct.2013.10.028)

How the values were obtained:
[1] = molar heat capacity at constant pressure; wn = mass fraction of the nth substance listed; details: 100 kPa, Liquid, Large sample (1 g) DSC
[2] = molar heat capacity at constant pressure; details: 100 kPa, Liquid, Large sample (1 g) DSC

[Cl-].[Li+] [lithium chloride] + O
molar heat capacity at constant pressure [J/K/mol], [1]
Details | 308.15 K | 313.15 K | 318.15 K | 323.15 K | 328.15 K | 333.15 K | 338.15 K | 343.15 K
w1 = 0.15 | 68.89 | 68.97 | 69.06 | 69.18 | 69.28 | 69.36 | 69.36 | 69.42
w1 = 0.2001 | 67.4 | 67.55 | 67.65 | 67.79 | 67.93 | 68.02 | 68.08 | 68.06
w1 = 0.2501 | 66.11 | 66.26 | 66.43 | 66.6 | 66.76 | 66.93 | 67.02 | 67.12
w1 = 0.3 | 65.14 | 65.44 | 65.66 | 65.9 | 66.14 | 66.34 | 66.49 | 66.58
w1 = 0.3499 | 64.84 | 65.16 | 65.4 | 65.65 | 65.92 | 66.15 | 66.33 | 66.49
w1 = 0.3998 | 64.57 | 64.89 | 65.17 | 65.48 | 65.78 | 66.04 | 66.25 | 66.39
w1 = 0.4502 | 64.39 | 64.76 | 65.05 | 65.37 | 65.68 | 65.95 | 66.17 | 66.34

O [water]
[2]
Details | molar heat capacity at constant pressure [J/K/mol]
308.15 K | 75.47
313.15 K | 75.43
318.15 K | 75.41
323.15 K | 75.43
328.15 K | 75.45
333.15 K | 75.47
338.15 K | 75.47
343.15 K | 75.47
